According to ChEMBL document CHEMBL1201862, “PubChem BioAssay data set” (2004):
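Five compound concentrations were applied to cells in 96-well plates for 48 hours; endpoints were derived by simple linear interpolation of the resulting dose-response curve. At the GI50, growth is halved.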 Activity calls are given as the source filed them. No stated cut-off is given here; in the data, active = GI50 up to about 1.1 µM and inactive = higher.

Legend:
Test in all cases: NCI anticancer screen, dose series, 48 h
A498 = system: A498
A549 = system: A549
CAKI-1 = system: CAKI-1
COLO 205 = system: COLO 205
DMS-114 = system: DMS-114
EKVX = system: EKVX
HCT-116 = system: HCT-116
HOP-92 = system: HOP-92
K562 = system: K562
LOX IMVI = system: LOX IMVI
LXFL 529 = system: LXFL 529
Malme-3M = system: Malme-3M
NCI-H460 = system: NCI-H460
OVCAR-4 = system: OVCAR-4
SR = system: SR
U-251 = system: U-251
UO-31 = system: UO-31
NCI-H23 = system: NCI-H23
SK-OV-3 = system: SK-OV-3

For `COc1ccc(/C(=C\c2cc(OC)c(OC)c(OC)c2)C(=O)O)cc1`, the GI50 (A498) was 15.9 µM (inactive), the GI50 (A549) was 40.1 µM (inactive) and the GI50 (CAKI-1) was 30.4 µM (inactive). The GI50 (COLO 205) was 18.3 µM (inactive), the GI50 (DMS-114) was 25.2 µM (inactive) and the GI50 (EKVX) was 57 µM (inactive). The GI50 (HCT-116) was 29 µM (inactive), the GI50 (HOP-92) was 33.8 µM (inactive) and the GI50 (K562) was 25.8 µM (inactive). For the same compound, the GI50 (LOX IMVI) was 27.5 µM (inactive), the GI50 (LXFL 529) was 41 µM (inactive) and the GI50 (Malme-3M) was 55.3 µM (inactive). The GI50 (NCI-H460) was 35.6 µM (inactive), the GI50 (OVCAR-4) was 85.7 µM (inactive) and the GI50 (SR) was 38.8 µM (inactive). For the same compound, the GI50 (U-251) was 44.6 µM (inactive) and the GI50 (UO-31) was 25.6 µM (inactive).
`O=c1c2cc(Br)ccc2nc(-c2ccccc2)n1NCC1(O)OCC(O)C(O)C1O` (stereo not drawn) was tested, and the GI50 (A498) was > 100 µM (inactive), the GI50 (A549) was > 100 µM (inactive) and the GI50 (CAKI-1) was > 100 µM (inactive). For the same compound, the GI50 (COLO 205) was > 100 µM (inactive), the GI50 (DMS-114) was > 100 µM (inactive) and the GI50 (EKVX) was > 100 µM (inactive). For the same compound, the GI50 (HCT-116) was > 100 µM (inactive), the GI50 (K562) was > 100 µM (inactive) and the GI50 (LOX IMVI) was > 100 µM (inactive). The GI50 (LXFL 529) was 92 µM (inactive), the GI50 (Malme-3M) was > 100 µM (inactive) and the GI50 (NCI-H23) was > 100 µM (inactive). For the same compound, the GI50 (NCI-H460) was > 100 µM (inactive), the GI50 (OVCAR-4) was 61.8 µM (inactive) and the GI50 (SK-OV-3) was > 100 µM (inactive). The GI50 (SR) was 48.8 µM (inactive), the GI50 (U-251) was > 100 µM (inactive) and the GI50 (UO-31) was > 100 µM (inactive).
For `NNC(=S)N/N=C/C(=C/Nc1ccccc1)[N+](=O)[O-]`, the GI50 (A549) was > 100 µM (inactive), the GI50 (CAKI-1) was > 100 µM (inactive) and the GI50 (COLO 205) was > 100 µM (inactive). The GI50 (DMS-114) was > 100 µM (inactive), the GI50 (EKVX) was > 100 µM (inactive) and the GI50 (HCT-116) was > 100 µM (inactive). The GI50 (HOP-92) was > 100 µM (inactive), the GI50 (K562) was 10 µM (inactive) and the GI50 (LOX IMVI) was > 100 µM (inactive). For the same compound, the GI50 (LXFL 529) was > 100 µM (inactive), the GI50 (Malme-3M) was > 100 µM (inactive) and the GI50 (NCI-H23) was > 100 µM (inactive). The GI50 (OVCAR-4) was > 100 µM (inactive), the GI50 (SK-OV-3) was > 100 µM (inactive) and the GI50 (SR) was 1 µM (active).
`CNC(=S)NC(=S)N(C)C` was tested, and the GI50 (A498) was > 100 µM (inactive), the GI50 (A549) was 7.67 µM (inactive) and the GI50 (CAKI-1) was > 100 µM (inactive). The GI50 (DMS-114) was 64.9 µM (inactive), the GI50 (EKVX) was > 100 µM (inactive) and the GI50 (HCT-116) was 4.71 µM (inactive). For the same compound, the GI50 (HOP-92) was > 100 µM (inactive), the GI50 (K562) was 1.75 µM (inactive) and the GI50 (LOX IMVI) was 4.95 µM (inactive). For the same compound, the GI50 (LXFL 529) was > 100 µM (inactive), the GI50 (NCI-H23) was 0.692 µM (active) and the GI50 (NCI-H460) was 2.71 µM (inactive). The GI50 (OVCAR-4) was > 100 µM (inactive), the GI50 (SK-OV-3) was > 100 µM (inactive) and the GI50 (SR) was 3.44 µM (inactive). For the same compound, the GI50 (U-251) was > 100 µM (inactive) and the GI50 (UO-31) was > 100 µM (inactive).
In the case of `COC(=O)C(=O)C(C(=O)C(=O)Nc1cc(Cl)c(Cl)cc1Cl)c1nc2ccc([N+](=O)[O-])cc2nc1O` (stereo not drawn), the GI50 (A549) is reported as > 100 µM (inactive), the GI50 (CAKI-1) is reported as 60.8 µM (inactive) and the GI50 (COLO 205) is reported as > 100 µM (inactive). For the same compound, the GI50 (DMS-114) was > 100 µM (inactive), the GI50 (EKVX) was 48.5 µM (inactive) and the GI50 (HCT-116) was > 100 µM (inactive). For the same compound, the GI50 (K562) was > 100 µM (inactive), the GI50 (LOX IMVI) was > 100 µM (inactive) and the GI50 (LXFL 529) was > 100 µM (inactive). For the same compound, the GI50 (Malme-3M) was > 100 µM (inactive), the GI50 (NCI-H23) was > 100 µM (inactive) and the GI50 (OVCAR-4) was > 100 µM (inactive). For the same compound, the GI50 (SK-OV-3) was > 100 µM (inactive), the GI50 (SR) was > 100 µM (inactive) and the GI50 (U-251) was > 100 µM (inactive). For the same compound, the GI50 (UO-31) was 51.4 µM (inactive).
For `CCN(CC)C(=O)CCn1cc(F)c(=O)[nH]c1=O`, the GI50 (A549) was > 100 µM (inactive), the GI50 (COLO 205) was > 100 µM (inactive) and the GI50 (DMS-114) was > 100 µM (inactive). For the same compound, the GI50 (EKVX) was > 100 µM (inactive), the GI50 (HCT-116) was > 100 µM (inactive) and the GI50 (K562) was > 100 µM (inactive). The GI50 (LOX IMVI) was > 100 µM (inactive), the GI50 (LXFL 529) was > 100 µM (inactive) and the GI50 (Malme-3M) was > 100 µM (inactive). For the same compound, the GI50 (NCI-H23) was > 100 µM (inactive), the GI50 (NCI-H460) was > 100 µM (inactive) and the GI50 (OVCAR-4) was > 100 µM (inactive). The GI50 (SR) was > 100 µM (inactive), the GI50 (U-251) was > 100 µM (inactive) and the GI50 (UO-31) was > 100 µM (inactive).
